The test system of one series is orthotopic glioma model. In words: Orthotopic glioma model, antitumor activity in vivo. The settings on record: compared with temozolomide.
In series [1] the test system is U87 glioblastoma cells. In words: U87 cell viability (MTT) assay under normoxia and hypoxia. The format is cell-based, human. The settings on record: for pIC50: Homo sapiens, U-87 MG, 72 h. The method, then:
(§1) Cell viability experiments were carried out in U87 glioblastoma cells with 8000 cells/well in flat bottom 96 well plates. The cells were grown in low glucose (5.4 mM) DMEM/F12 media with 10% FBS and antibiotics. 24 hours after plating, cells were treated with increasing concentration of 2-deoxy-2,2-difluoro-D-arabino-hexopyranose (DFG) for 72 hours in normoxic (21% O2) or hypoxic (0.1% O2) conditions. In addition, to test the ability of monosachamides to compete with DFG in inhibiting glycolysis and glycosylation, cells were treated with increasing concentrations of glucose, mannose or galactose. The experiments were carried out in duplicate (n=2).
(§2) U87 human glioma cancer cells were obtained from the American Type Culture Collection (Manassas, Va.) and maintained in a humidified atmosphere containing 5% CO2 at 37° C. Cells were routinely cultured in DMEM/F12 medium (Invitrogen Corp., Grand Island, N.Y.) supplemented with 10% heat inactivated fetal bovine serum (Hyclone Laboratories Inc., Logan, Utah), 50 IU/ml penicillin and […] streptomycin from GIBCO (Invitrogen). Cell viability experiments were carried out in U87 cells with 8000 cells/well in flat bottom 96 well plates. The cells were grown in low glucose (5.4 mM) DMEM/F12 media supplied with 10% FBS and antibiotics. 24 hours after plating, cells were treated with increasing concentration (1 to 10 mM) of 2-difluoro-D-glucose (DFG) for 72 hours in normoxic (21% O2) or hypoxic (approximately 0.1% O2) conditions. To test the competing ability of glucose, galactose and mannose with DFG, the cells were also treated with increasing concentration of the glucose (5, 10, and 20 mM), galactose (5, 10, and 20 mM) or mannose (0.1, 1, and 5 mM). The experiments were carried out in duplicate (n=2). After 72 hours of treatment, inhibition of cellular proliferation was assessed by the MTT assay. Absorbance was read at a wavelength of 570 nm using a V Max Micro plate reader by Molecular Devices, Inc. (Sunnyvale, Calif.). The cytoctoxicity of 2-DFG was calculated by normalization to the 100% viability of the control (untreated cells) and presented as percent control.

The test system of series [2] is U87 glioblastoma cells. Kind of series: U87 cell viability assay with co-treatment by D-glucose, D-mannose or D-galactose (competition). The format is cell-based, human. The settings on record: for Viability Protection by D-Mannose Under Hypoxia (IC50 shift) / Viability Protection by D-Mannose Under Normoxia (IC50 shift): co-treatment with 0.1 mM of D-mannose; for Viability Protection by D-Galactose Under Hypoxia (IC50 shift) / Viability Protection by D-Galactose Under Normoxia (IC50 shift): co-treatment with 5 mM of D-galactose; for Viability Protection by D-Glucose Under Hypoxia (IC50 shift) / Viability Protection by D-Glucose Under Normoxia (IC50 shift): co-treatment with 5 mM of D-glucose. The method, then: as §1, §2

Series [3] concerns U87 cells. Kind of series: Transmission electron microscopy / detection of autophagosomes. It is filed as cell-based, human. The method, then:
FIGS. 16a through 16d provides electron micrographs of 2-DFG induced autophagy in U87 cells (5 mM, 72 h treatment, 5.6 mM low glucose media).
(§3) To test the ability of the 2-DFG to induce autophagic cell death, we monitored the increase in acidic vesicular organelles (AVO) using acridine orange staining in U87 cells treated with increasing concentrations of 2-DFG for 72 hours under hypoxia and normoxia. […] Therefore, targeting the energetic metabolism of cancer cells and the autophagic survival response using inhibitors of glycolysis is a promising therapeutic approach for the treatment of cancers that are dependent on glycolysis for survival.

Series [4] has as its system U87 cells. Kind of series: Acridine orange staining of acidic vesicular organelles (AVO), autophagy. The settings on record: 72 hours, increasing concentrations, hypoxia and normoxia. The format is cell-based, human. As to the method:
FIGS. 14a through 14f provide the quantification of 2-DFG induced autophagy in U87 glioma cells after 72 h of normoxia treatment in 5.6 mM low glucose media using acridine orange-acid vesicular organelles (AVO) straining assay.
FIGS. 15a through 15f provide the quantification of 2-DFG induced autophagy in U87 glioma cells after 72 h of hypoxia treatment in 5.6 mM low glucose media using acridine orange-acid vesicular organelles (AVO) straining assay.
as §3

The test system of series [5] is U87 cells. Kind of series: Cell cycle analysis. The settings on record: 5 mM, 72 h. The format is cell-based, human.
Where [6] appears, read: hypoxia (0.1% O2), 72 hours, low glucose media, read-out: Inhibition under Hypoxia (IC50, U87 cell viability).
Where [7] appears, read: normoxia (21% O2), 72 hours, low glucose media, read-out: Inhibition under Normoxia (IC50, U87 cell viability).

Each structure is given as a SMILES string. pIC50: −log10 of the molar value. Read-outs that look alike come from different tables or passages of the source. A value given as a limit tells only on which side of the number the result lay.

Take `O=C[C@H](F)[C@@H](O)[C@H](O)[C@H](O)CO` [2-FG, 2-fluoro-2-deoxy-D-glucose]: in the series on orthotopic glioma model, the “Antitumor activity in vivo” value is “comparable to that of temozolomide”.

Consider `O=CC[C@@H](O)[C@H](O)[C@H](O)CO` [2-DG, 2-Deoxy-D-glucose, reference compound], for which the pIC50 – broadly, the negative decadic logarithm of the IC50, by convention in mol/L – in the series on U87 glioblastoma cells [1] (setting [6]) is ≤ 2.74. For the same compound, the pIC50 with U87 glioblastoma cells [1] (setting [7]) was ≤ 2.74. In addition, in the series on U87 glioblastoma cells [2], the “Viability Protection by D-Mannose Under Hypoxia (IC50 shift)” value is reported as “++ (~1.5-2 mM IC50 shift after co-treatment with 0.1 mM of D-mannose)”, the “Viability Protection by D-Galactose Under Hypoxia (IC50 shift)” value is listed as “− (0-0.5 mM IC50 shift after co-treatment with 5 mM of D-galactose.)”, the “Viability Protection by D-Glucose Under Hypoxia (IC50 shift)” value is reported as “+++ (>5 mM IC50 shift after co-treatment with 5 mM of D-glucose)” and the “Viability Protection by D-Mannose Under Normoxia (IC50 shift)” value is listed as “+++ (>5 mM IC50 shift after co-treatment with 0.1 mM of D-mannose)”. In the series on U87 glioblastoma cells [2], the “Viability Protection by D-Galactose Under Normoxia (IC50 shift)” value was “− (0-0.5 mM IC50 shift after co-treatment with 5 mM of D-galactose.)” and the “Viability Protection by D-Glucose Under Normoxia (IC50 shift)” value is listed as “+ (~1 mM IC50 shift after co-treatment with 5 mM of D-glucose)”. Also, in the series on U87 cells [3] (U87 Glioblastoma cells, preliminary studies), the “Stimulation of autophagy (detection of autophagosomes after treatment)” value is recorded as “able to stimulate the process of autophagy”. Also, the “Antitumor activity in vivo” value with orthotopic glioma model is recorded as “comparable to that of temozolomide”.

For the compound `OC[C@H]1OC(O)C(F)(F)[C@@H](O)[C@@H]1O` (stereo partly drawn) [DFG, 2-Deoxy-2,2-difluoro-D-arabino-hexopyranose], the pIC50 with U87 glioblastoma cells [1] (setting [6]) was 2.74 to 2.82. The pIC50 with U87 glioblastoma cells [1] (hypoxic conditions (0.1% O2), read-out: IC50 (cytotoxicity in U87 cells)) is 2.92. In addition, the pIC50 in the series on U87 glioblastoma cells [1] (setting [7]) is ≤ 2.74. Further, in the series with U87 glioblastoma cells [1] (normoxic conditions (21% O2), read-out: IC50 (cytotoxicity in U87 cells)), the negative-log IC50 (pIC50) was 2.54. For the same compound, the “Concentration giving substantial inhibition of cellular growth” value in the series on U87 glioblastoma cells [1] (hypoxic conditions) is “lower than 4 mM”. For the same compound, in the series with U87 glioblastoma cells [1] (normoxic conditions), the “Concentration required for substantial inhibition of cellular growth” value was “above 6 mM”. In the series on U87 glioblastoma cells [2], the “Viability Protection by D-Mannose Under Hypoxia (IC50 shift)” value is “− (0-0.5 mM IC50 shift after co-treatment with 0.1 mM of D-mannose)”, the “Viability Protection by D-Galactose Under Hypoxia (IC50 shift)” value was “− (0-0.5 mM IC50 shift after co-treatment with 5 mM of D-galactose.)”, the “Viability Protection by D-Glucose Under Hypoxia (IC50 shift)” value is “++ (~1.5-2 mM IC50 shift after co-treatment with 5 mM of D-glucose)” and the “Viability Protection by D-Mannose Under Normoxia (IC50 shift)” value is given as “+ (~1 mM IC50 shift after co-treatment with 0.1 mM of D-mannose)”. Further, in the series with U87 glioblastoma cells [2], the “Viability Protection by D-Galactose Under Normoxia (IC50 shift)” value is reported as “− (0-0.5 mM IC50 shift after co-treatment with 5 mM of D-galactose.)” and the “Viability Protection by D-Glucose Under Normoxia (IC50 shift)” value was “+ (~1 mM IC50 shift after co-treatment with 5 mM of D-glucose)”. Also, the “Autophagosomes by electron microscopy” value in the series on U87 cells [3] (5 mM, 72 h treatment, normoxia) is “extensive presence of autophagosomes”. The “Acidic vesicular organelles (AVO), acridine orange staining” value with U87 cells [4] is given as “concentration dependent increase in acridine orange staining”. In the series with U87 cells [5], the “Cell cycle distribution: G2/M phase” value is given as “significant increase in G2/M phase” and the “Cell cycle distribution: Sub G0/G1 phase” value was “no significant increase in Sub G0/G1 phase”.

As to `O=C[C@@H](F)[C@@H](O)[C@H](O)[C@H](O)CO` [2-FM, 2-fluoro-2-deoxy-D-mannose], the “Antitumor activity in vivo” value in the series with orthotopic glioma model is “comparable to that of temozolomide”.

For the origin of these results see patent publication US9149489B2, “Inhibitors of glycolysis useful in the treatment of brain tumors” (Board of Regents, University of Texas System, priority 2006, dated 2015).
